Measured values from patent publication US20230148588A1, “METHODS, COMPOSITIONS, AND SYSTEMS FOR ENHANCING EX-VIVO ORGAN PERFUSION” (University Health Network, priority 2020, published 2023).
Entries after “also recorded” stand apart in the source; their conditions may differ. Where a SMILES comes first, the peptide text is derived from it.

Key:
[1] = pH of Steen solution after addition of nutrients; assay type: physicochemical; details: nutrient added to Steen solution (GlutaMax at 4 mM; amino acids at clinically recommended concentrations)
Description: Amino acids are essential nutrients for cell proliferation. In rat lungs, the lack of amino acids and insulin in perfusate reduced protein synthesis, while vitamin C prolonged the viability and stability of perfused rat lungs by slowing the decline of mitochondrial activity. Therefore, clinically recommended concentrations of amino acids and/or vitamins were added in Steen solution to improve its performance.

pig lung = assay: Pig lung EVLP with GlutaMax-modified Steen solution; details: for lung function: compared with historical controls
Source text: Methods: Human pulmonary microvascular endothelial cells (HPMEC) and human lung epithelial cells (BEAS-2B) were used to determine the effects of Steen solution components on basic cellular function. Cell confluence, apoptosis and migration were visualized and quantified by IncuCyte® Live Cell Analysis System in real-time. A simulated EVLP cell culture model was established by replacing regular culture medium with cold lung preservation solution and followed by “perfusion” with normothermic Steen solution or its modifications. Cell apoptosis was quantified. Porcine lung EVLP was performed using Steen solution with added nutrients. […] During the experiment, EVLP was extended as long as the dynamic lung compliance was greater than 15 ml/cmH2O. […] Pig lungs were preserved at 4° C. followed by EVLP. […] Lung function assessment: Perfusate was sampled regularly. PO2, PCO2, pH, Na^+, K^+, Ca^2+, Cl^−, glucose and lactate were determined via a blood gas analyzer (see FIG. 17; Table 3). Pulmonary function was monitored continuously and assessed every hour, including static and dynamic compliances, peak airway inspiratory pressure, pulmonary artery pressure and pulmonary vascular resistance (PVR). Lung tissue biopsies were collected before, during and at the end of EVLP. Lung wet-to-dry ratio was measured as an indicator of lung edema.

IL-8 = IL-8 production in simulated EVLP cell culture model; assay type: cell-based, human; details: prolonged CIT (18 h) and simulated EVLP (12 h)
Description: A cell culture model was developed that simulates hypothermic lung preservation and reperfusion and was used to “perfuse” cells with EVLP perfusate, as shown in FIG. 6A. Culture medium of confluent cells was replaced with 4° C. lung preservation solution (Perfadex®) for 6 h or 18 h, and then “perfused” with Steen solution with and without GlutaMax.

[2] = tested on: human pulmonary microvascular endothelial cells (HPMEC); assay: Basic cellular function of cells exposed to Steen solution and its modifications (IncuCyte Live Cell Analysis); assay type: cell-based; details: for apoptosis / cell migration: GlutaMax added at 4 mM to Steen solution, vs Steen solution
Source text: (§1) Methods: Human pulmonary microvascular endothelial cells (HPMEC) and human lung epithelial cells (BEAS-2B) were used to determine the effects of Steen solution components on basic cellular function. Cell confluence, apoptosis and migration were visualized and quantified by IncuCyte® Live Cell Analysis System in real-time. A simulated EVLP cell culture model was established by replacing regular culture medium with cold lung preservation solution and followed by “perfusion” with normothermic Steen solution or its modifications. Cell apoptosis was quantified. Porcine lung EVLP was performed using Steen solution with added nutrients.
(§2) The effects of glutamine in Steen solution on mitochondrial respiration and glycolytic function were examined using a Seahorse XFe analyzer.

[3] = tested on: human lung epithelial cells (BEAS-2B); assay: as above; assay type: cell-based; details: for apoptosis / cell migration: GlutaMax added at 4 mM to Steen solution, vs Steen solution
Source text: as §1, §2

HPMEC = assay: Simulated EVLP cell culture model (cold Perfadex preservation, then perfusion with Steen solution with and without GlutaMax); assay type: cell-based, human; details: for total GSH production: fluorometric assay kit; for apoptosis: GlutaMax 0.5 mM to 4 mM in Steen solution, after 6 h or 18 h cold preservation, simulated EVLP
Source text: (§3) Methods: Human pulmonary microvascular endothelial cells (HPMEC) and human lung epithelial cells (BEAS-2B) were used to determine the effects of Steen solution components on basic cellular function. Cell confluence, apoptosis and migration were visualized and quantified by IncuCyte® Live Cell Analysis System in real-time. A simulated EVLP cell culture model was established by replacing regular culture medium with cold lung preservation solution and followed by “perfusion” with normothermic Steen solution or its modifications. Cell apoptosis was quantified. Porcine lung EVLP was performed using Steen solution with added nutrients. A cell culture model was developed that simulates hypothermic lung preservation and reperfusion and was used to “perfuse” cells with EVLP perfusate, as shown in FIG. 6A. Culture medium of confluent cells was replaced with 4° C. lung preservation solution (Perfadex®) for 6 h or 18 h, and then “perfused” with Steen solution with and without GlutaMax. […] Human lung endothelial and epithelial cells were subjected to simulated EVLP treated with Steen solution with and without GlutaMax. GSH concentration in cell culture was measured with a fluorometric assay kit from BioVision.

BEAS-2B = assay: as above; assay type: cell-based, human; details: for total GSH production: fluorometric assay kit; for apoptosis: GlutaMax 0.5 mM to 4 mM in Steen solution, after 6 h or 18 h cold preservation, simulated EVLP
Source text: as §3

[4] = pig lung EVLP, first 18 h, compared with historical control
[5] = CIT 6 h and EVLP 4 h, listed as GlutaMAX
[6] = different concentrations of Albumin (1, 2, 4, 7%) and Dextran 40 (5, 25, 50 g/L) in Steen solution

## C[C@H](N)C(=O)N[C@@H](CCC(N)=O)C(=O)O [GlutaMax, L-alanyl-L-glutamine] (H-Ala-Gln-OH)
[1]
  pH: maintained in the physiological range
Pig lung; pig lung EVLP
  lung function: improved lung function
Pig lung; pig lung EVLP, listed as gln
  lung function: stable lung function
Pig lung; [4]
  delta PO2: higher
  dynamic compliance: higher
  peak airway pressure: lower
Pig lung; pig lung EVLP, gln added to Steen solution
  EVLP period: significantly extend
Pig lung; pig lung, EVLP extended as long as dynamic lung compliance greater than 15 ml/cmH2O
  EVLP duration reached: 36 h
IL-8
  IL-8 production: inhibited IL-8 production
[2]
  apoptosis: reduced apoptosis
  cell migration: improved cell migration
[2]; listed as L-alanyl-L-glutamine
  apoptosis: significantly inhibited cell apoptosis
  cell migration: improved cell migration
[3]
  apoptosis: reduced apoptosis
  cell migration: improved cell migration
[3]; listed as L-alanyl-L-glutamine
  apoptosis: significantly inhibited cell apoptosis
  cell migration: improved cell migration
HPMEC; CIT 6 h and EVLP 4 h
  HSP70 production (protein expression in cell lysates): promoted HSP70 production; also recorded: enhanced HSP70 production
  total GSH production: enhanced total GSH production
HPMEC; [5]
  total GSH production: enhanced Total GSH production
HPMEC
  apoptosis: reduced apoptosis
HPMEC; listed as Glutamax
  apoptosis: reduced apoptosis
HPMEC; listed as gln
  apoptosis: significantly reduced apoptosis
BEAS-2B; CIT 6 h and EVLP 4 h
  HSP70 production (protein expression in cell lysates): promoted HSP70 production; also recorded: enhanced HSP70 production
  total GSH production: enhanced total GSH production
BEAS-2B; [5]
  total GSH production: enhanced Total GSH production
BEAS-2B
  apoptosis: reduced apoptosis
BEAS-2B; listed as Glutamax
  apoptosis: reduced apoptosis
BEAS-2B; listed as gln
  apoptosis: significantly reduced apoptosis

## Dextran 40
[2]; [6]
  cell confluence, apoptosis and migration: no major differences
[3]; [6]
  cell confluence, apoptosis and migration: no major differences
